# From the supplement of paper PMC12463676, “Small-molecule dissolution of stress granules by redox modulation benefits ALS models” (Nature Chemical Biology, 2025)
# Experiments:
# potassium arsenate = compound: O=[As]([O-])(O)O.[K+] [potassium arsenate]; assay: thermal stability z-score vs DMSO; higher = more thermally stabilized by treatment; details: HeLa; arsenate concentration 1 mM
# Experimental: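 Cellular thermal proteome profiling in HeLa cells treated with 1 mM arsenate for 1 h (DMSO pretreatment), heated to ten temperatures (37-66.3 °C). Soluble protein was quantified by TMT mass spectrometry relative to DMSO controls; the thermal stability score was transformed to a z-score; mean of n = 3 experiments.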
# lipoamide = compound: NC(=O)CCCCC1CCSS1 [lipoamide]; assay: as above; details: HeLa, lipoamide concentration 100 µM
# Experimental: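 Cellular thermal proteome profiling in HeLa cells. Cells were treated with 100 µM lipoamide for 1 h, with or without 1 mM arsenate for a further 1 h, then heated to ten temperatures (37-66.3 °C), and soluble protein was quantified by TMT mass spectrometry relative to 0.1% DMSO controls. The thermal stability score (sum of log2 fold changes minus the abundance score) was transformed to a z-score; mean of n = 3 experiments.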
# [1] = arsenate co-treatment: 1 mM arsenate 1 h
# 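Also: each temperature applied for 3 min, abundance score taken as mean log2 fold change at the two lowest temperatures, z-score obtained by mean subtraction and division by SD.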
# Chain of UniProt Q9BSJ8 (Q9BSJ8 whole entry): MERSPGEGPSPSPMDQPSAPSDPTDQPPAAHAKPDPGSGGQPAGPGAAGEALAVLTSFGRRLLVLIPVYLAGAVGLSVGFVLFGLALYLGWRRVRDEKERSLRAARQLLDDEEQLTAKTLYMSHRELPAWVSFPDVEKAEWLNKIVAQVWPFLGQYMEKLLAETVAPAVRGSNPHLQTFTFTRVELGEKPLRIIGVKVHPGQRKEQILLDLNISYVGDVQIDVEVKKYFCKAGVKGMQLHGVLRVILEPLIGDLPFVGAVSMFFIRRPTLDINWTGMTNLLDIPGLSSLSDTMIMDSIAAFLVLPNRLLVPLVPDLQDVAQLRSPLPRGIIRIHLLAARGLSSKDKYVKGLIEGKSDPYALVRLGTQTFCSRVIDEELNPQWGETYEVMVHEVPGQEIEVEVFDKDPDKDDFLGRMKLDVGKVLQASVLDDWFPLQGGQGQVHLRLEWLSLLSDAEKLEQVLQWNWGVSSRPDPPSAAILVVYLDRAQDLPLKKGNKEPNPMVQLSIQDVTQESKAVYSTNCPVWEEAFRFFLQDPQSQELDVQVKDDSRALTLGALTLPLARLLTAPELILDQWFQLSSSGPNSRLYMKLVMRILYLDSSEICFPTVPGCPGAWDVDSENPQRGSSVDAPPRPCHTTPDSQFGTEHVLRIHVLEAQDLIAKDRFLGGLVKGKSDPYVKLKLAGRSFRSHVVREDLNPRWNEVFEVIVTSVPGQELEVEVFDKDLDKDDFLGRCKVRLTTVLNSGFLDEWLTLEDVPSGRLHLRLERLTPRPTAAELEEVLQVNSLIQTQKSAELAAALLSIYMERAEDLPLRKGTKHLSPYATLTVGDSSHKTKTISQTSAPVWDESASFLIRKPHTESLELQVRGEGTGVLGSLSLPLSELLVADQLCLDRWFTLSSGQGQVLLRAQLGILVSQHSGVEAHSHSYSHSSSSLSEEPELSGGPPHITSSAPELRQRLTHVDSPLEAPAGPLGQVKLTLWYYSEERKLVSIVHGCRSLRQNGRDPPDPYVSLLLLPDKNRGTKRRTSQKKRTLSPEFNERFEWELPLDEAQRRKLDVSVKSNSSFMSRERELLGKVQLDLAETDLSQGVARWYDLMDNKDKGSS
# Chain of UniProt Q8IYU8 (Q8IYU8 whole entry): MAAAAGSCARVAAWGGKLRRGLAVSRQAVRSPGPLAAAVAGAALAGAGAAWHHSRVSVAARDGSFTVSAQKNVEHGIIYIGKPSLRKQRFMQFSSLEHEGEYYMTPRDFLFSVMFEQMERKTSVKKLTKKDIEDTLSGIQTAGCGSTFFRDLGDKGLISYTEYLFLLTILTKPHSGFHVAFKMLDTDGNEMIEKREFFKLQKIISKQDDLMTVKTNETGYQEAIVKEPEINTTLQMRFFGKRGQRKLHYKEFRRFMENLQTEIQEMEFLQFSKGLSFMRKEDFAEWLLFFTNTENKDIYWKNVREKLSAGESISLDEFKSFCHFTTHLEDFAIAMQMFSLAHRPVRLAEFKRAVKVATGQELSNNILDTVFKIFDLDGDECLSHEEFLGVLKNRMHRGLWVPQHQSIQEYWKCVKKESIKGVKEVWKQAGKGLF
# Chain of UniProt Q9ULT8 (Q9ULT8 whole entry): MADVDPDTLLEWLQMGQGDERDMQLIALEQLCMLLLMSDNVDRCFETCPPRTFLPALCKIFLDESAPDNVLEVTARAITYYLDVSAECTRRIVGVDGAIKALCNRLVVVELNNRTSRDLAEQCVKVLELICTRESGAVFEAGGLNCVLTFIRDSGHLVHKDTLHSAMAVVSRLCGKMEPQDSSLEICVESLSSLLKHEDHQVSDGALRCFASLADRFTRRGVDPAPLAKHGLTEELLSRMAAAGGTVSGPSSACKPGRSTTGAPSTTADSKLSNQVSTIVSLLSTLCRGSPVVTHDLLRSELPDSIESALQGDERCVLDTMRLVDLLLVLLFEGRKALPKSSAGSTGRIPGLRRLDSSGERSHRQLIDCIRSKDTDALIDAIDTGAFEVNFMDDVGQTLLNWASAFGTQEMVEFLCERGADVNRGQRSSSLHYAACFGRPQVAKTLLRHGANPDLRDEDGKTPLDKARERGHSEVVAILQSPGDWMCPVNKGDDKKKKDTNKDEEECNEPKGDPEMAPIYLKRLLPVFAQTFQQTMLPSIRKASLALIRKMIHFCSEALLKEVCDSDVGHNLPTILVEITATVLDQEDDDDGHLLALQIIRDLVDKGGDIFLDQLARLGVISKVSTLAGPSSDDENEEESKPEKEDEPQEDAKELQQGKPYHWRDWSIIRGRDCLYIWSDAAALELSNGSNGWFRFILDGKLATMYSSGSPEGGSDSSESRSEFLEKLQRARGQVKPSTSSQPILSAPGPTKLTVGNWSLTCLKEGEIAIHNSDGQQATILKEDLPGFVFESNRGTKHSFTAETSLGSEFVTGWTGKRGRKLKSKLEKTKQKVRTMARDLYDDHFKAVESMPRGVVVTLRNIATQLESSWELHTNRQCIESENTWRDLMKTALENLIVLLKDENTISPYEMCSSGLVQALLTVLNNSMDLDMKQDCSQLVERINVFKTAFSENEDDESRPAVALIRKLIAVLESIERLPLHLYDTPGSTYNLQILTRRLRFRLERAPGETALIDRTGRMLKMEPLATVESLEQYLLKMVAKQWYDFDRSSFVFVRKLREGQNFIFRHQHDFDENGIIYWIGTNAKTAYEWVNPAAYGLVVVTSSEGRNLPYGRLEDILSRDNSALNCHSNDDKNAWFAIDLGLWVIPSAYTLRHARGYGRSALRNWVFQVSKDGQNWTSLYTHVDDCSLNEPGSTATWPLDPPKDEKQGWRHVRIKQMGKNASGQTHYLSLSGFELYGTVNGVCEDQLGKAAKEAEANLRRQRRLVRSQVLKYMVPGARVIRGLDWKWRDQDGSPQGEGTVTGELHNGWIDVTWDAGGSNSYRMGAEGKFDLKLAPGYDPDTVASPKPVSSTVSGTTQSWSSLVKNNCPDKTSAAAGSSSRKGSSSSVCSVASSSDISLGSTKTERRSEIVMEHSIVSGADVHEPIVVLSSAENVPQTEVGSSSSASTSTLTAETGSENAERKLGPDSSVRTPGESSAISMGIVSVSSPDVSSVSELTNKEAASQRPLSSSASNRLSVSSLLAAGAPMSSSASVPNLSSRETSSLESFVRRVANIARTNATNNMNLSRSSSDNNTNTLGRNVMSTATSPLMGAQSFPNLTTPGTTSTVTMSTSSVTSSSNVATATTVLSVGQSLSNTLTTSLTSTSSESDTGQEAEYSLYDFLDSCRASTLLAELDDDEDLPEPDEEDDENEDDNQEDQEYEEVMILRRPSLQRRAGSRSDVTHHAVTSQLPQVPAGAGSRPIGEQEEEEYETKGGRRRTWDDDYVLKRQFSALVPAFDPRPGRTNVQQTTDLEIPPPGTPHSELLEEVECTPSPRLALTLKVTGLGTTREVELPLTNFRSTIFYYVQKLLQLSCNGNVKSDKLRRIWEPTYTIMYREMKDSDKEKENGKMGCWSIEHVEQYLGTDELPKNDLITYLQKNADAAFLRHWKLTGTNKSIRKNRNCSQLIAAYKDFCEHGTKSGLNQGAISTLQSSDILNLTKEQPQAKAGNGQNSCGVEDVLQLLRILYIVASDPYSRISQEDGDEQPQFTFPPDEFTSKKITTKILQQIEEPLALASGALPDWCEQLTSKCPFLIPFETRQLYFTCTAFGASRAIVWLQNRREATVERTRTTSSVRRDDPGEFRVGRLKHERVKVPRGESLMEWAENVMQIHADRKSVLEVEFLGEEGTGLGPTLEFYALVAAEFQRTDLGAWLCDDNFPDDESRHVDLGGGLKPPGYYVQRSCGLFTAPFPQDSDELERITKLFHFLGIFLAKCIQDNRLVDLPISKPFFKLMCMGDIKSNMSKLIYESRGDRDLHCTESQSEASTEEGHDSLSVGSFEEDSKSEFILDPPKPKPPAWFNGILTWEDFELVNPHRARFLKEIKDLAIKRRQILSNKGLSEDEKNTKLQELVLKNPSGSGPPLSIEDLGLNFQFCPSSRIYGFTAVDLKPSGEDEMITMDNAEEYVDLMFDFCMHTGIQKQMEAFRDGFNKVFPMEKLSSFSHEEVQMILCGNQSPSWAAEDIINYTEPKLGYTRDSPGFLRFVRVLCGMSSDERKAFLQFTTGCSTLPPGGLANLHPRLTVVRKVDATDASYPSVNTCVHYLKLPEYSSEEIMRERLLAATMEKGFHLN
# Chain of UniProt Q14192 (Q14192 whole entry): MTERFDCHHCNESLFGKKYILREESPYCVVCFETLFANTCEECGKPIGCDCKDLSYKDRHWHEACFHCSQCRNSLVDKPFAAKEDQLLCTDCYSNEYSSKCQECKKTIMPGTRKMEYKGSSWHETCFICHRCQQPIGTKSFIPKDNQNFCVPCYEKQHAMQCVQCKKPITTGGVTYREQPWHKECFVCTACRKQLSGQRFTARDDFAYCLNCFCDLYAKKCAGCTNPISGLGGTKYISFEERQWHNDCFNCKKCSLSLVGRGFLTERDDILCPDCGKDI
# Chain of UniProt P49643 (P49643 whole entry): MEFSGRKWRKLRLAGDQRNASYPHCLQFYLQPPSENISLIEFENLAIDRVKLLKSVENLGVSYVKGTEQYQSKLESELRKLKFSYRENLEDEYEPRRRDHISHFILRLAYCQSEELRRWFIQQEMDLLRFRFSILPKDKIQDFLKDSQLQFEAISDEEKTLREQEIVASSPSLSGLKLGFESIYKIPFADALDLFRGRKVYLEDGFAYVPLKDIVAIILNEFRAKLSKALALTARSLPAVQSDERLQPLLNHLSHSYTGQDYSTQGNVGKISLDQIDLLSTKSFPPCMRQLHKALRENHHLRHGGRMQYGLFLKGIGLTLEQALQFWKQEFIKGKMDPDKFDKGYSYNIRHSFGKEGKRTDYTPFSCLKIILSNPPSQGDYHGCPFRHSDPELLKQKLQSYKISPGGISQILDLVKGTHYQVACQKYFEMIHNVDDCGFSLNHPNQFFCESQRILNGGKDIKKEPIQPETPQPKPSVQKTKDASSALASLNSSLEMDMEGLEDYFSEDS
# Chain of UniProt Q86SZ2 (Q86SZ2 whole entry): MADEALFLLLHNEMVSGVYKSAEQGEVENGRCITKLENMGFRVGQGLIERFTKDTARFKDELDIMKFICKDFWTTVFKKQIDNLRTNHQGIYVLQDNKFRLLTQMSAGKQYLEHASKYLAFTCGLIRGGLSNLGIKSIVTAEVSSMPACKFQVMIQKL
Target,thermal stability z-score (potassium arsenate),thermal stability z-score (lipoamide; [1]),thermal stability z-score (lipoamide; arsenate co-treatment: none)
ESYT1 (UniProt Q9BSJ8),0.595,-0.86,-0.642
VPS53 (UniProt Q5VIR6),-0.0122,0.332,0.126
RPS8 (UniProt P62241),-0.848,0.378,0.0867
RPRD2 (UniProt Q5VT52),0.719,1.99,1.64
PA2G4 (UniProt Q9UQ80),1.4,0.127,0.183
ESRP2 (UniProt Q9H6T0),0.0815,-0.121,0.00175
PDIA3 (UniProt P30101),0.907,-3.75,-2.98
USP1 (UniProt O94782),-0.221,-0.779,-0.444
GEMIN5 (UniProt Q8TEQ6),-0.93,-0.411,-0.402
TEX2 (UniProt Q8IWB9),0.0716,0.11,-0.0212
ATP5C1 (UniProt P36542),-0.252,-0.36,-0.306
MAN1B1 (UniProt Q9UKM7),0.103,-0.361,-0.286
CCNT1 (UniProt O60563),0.178,0.149,0.145
RCC2 (UniProt Q9P258),-0.0515,-0.997,-0.671
RAB35 (UniProt Q15286),-0.435,-0.564,0.0595
EDC3 (UniProt Q96F86),-0.555,-0.713,-0.608
AGPAT2 (UniProt O15120),0.392,-0.401,0.198
DCLK2 (UniProt Q8N568),0.0241,-0.19,0.0433
LMF2 (UniProt Q9BU23),0.316,-0.972,-0.61
TRAPPC6B (UniProt Q86SZ2),-0.511,-0.428,-1.19
RCHY1 (UniProt Q96PM5),-0.571,-0.131,-0.0834
FHL2 (UniProt Q14192),-6.31,-1.64,-0.905
IARS (UniProt P41252),0.763,-0.197,-0.0191
HECTD1 (UniProt Q9ULT8),0.641,-0.353,-0.164

Target,thermal stability z-score (potassium arsenate),thermal stability z-score (lipoamide; [1]),thermal stability z-score (lipoamide; arsenate co-treatment: none)
NAGPA (UniProt Q9UK23),-1.05,-0.847,-0.928
SCD (UniProt O00767),1.66,-1.45,-2.34
WDR36 (UniProt Q8NI36),-0.285,0.0966,0.698
SERF1A (UniProt O75920),-0.297,-0.0837,0.743
C16ORF58 (UniProt Q96GQ5),-0.192,-0.446,-0.183
CAPG (UniProt P40121),-0.915,0.598,0.158
UHRF1BP1L (UniProt A0JNW5),-0.53,-0.0289,-0.329
HAUS7 (UniProt Q99871),-0.0643,0.0237,-0.0345
BCAP29 (UniProt Q9UHQ4),-0.458,0.262,0.211
ERCC1 (UniProt P07992),0.0982,-0.168,0.0263
MLLT4 (UniProt P55196),-0.113,-0.572,-0.126
TGIF1 (UniProt Q15583),-0.203,-0.557,-0.274
MST1R (UniProt Q04912),-0.0232,-0.0878,0.0193
PMS2 (UniProt P54278),-0.0209,-0.198,-0.101
MICU2 (UniProt Q8IYU8),0.583,-0.422,-0.315
DHCR24 (UniProt Q15392),0.726,0.408,0.354
COPG2 (UniProt Q9UBF2),0.0479,-0.16,-0.253
NADK2 (UniProt Q4G0N4),-0.584,0.539,0.491
PDCL (UniProt Q13371),-0.321,1.05,0.207
PCYT1A (UniProt P49585),1.78,0.0432,0.294
PPM1B (UniProt O75688),0.179,0.109,0.277
SPIN1 (UniProt Q9Y657),-0.0902,0.0956,0.212
PRIM2 (UniProt P49643),-0.113,0.176,-0.165
GAN (UniProt Q9H2C0),-0.167,0.0625,-0.31

Target,thermal stability z-score (potassium arsenate),thermal stability z-score (lipoamide; [1]),thermal stability z-score (lipoamide; arsenate co-treatment: none)
WWC2 (UniProt Q6AWC2),-0.129,-0.0127,-0.0518
CD320 (UniProt Q9NPF0),1.01,1.65,0.874
POLR3F (UniProt Q9H1D9),-1.32,-0.186,-0.242
ARF6 (UniProt P62330),0.683,0.394,0.237
MAML1 (UniProt Q92585),1.03,0.141,0.017
HSD17B4 (UniProt P51659),0.201,0.258,0.497
TANC1 (UniProt Q9C0D5),1.14,0.142,1.34
TIMM17A (UniProt Q99595),0.164,0.133,-0.417
ABCC2 (UniProt Q92887),-0.256,1.06,1.14
CINP (UniProt Q9BW66),0.256,-0.0967,-0.169
GSR (UniProt P00390),-0.106,0.558,0.347
UBR1 (UniProt Q8IWV7),-0.191,-0.198,0.193
HTATIP2 (UniProt Q9BUP3),0.453,-0.914,-0.584
MCC (UniProt P23508),-0.0394,-0.1,-0.0517
TOP3B (UniProt O95985),-0.73,0.2,-0.391
TPRG1L (UniProt Q5T0D9),0.921,-0.302,0.421
WWP2 (UniProt O00308),0.0179,-0.0648,-0.0387
MIEF1,-0.198,-0.243,-0.035
COG5 (UniProt Q9UP83),0.793,-0.297,-0.0509
GAPVD1 (UniProt Q14C86),0.0188,-0.367,-0.206
SMG9 (UniProt Q9H0W8),-0.274,-0.596,-0.49
CDK17 (UniProt Q00537),-0.0969,1.07,0.395
THOC6 (UniProt Q86W42),0.429,0.337,0.402
SNRPB2 (UniProt P08579),-0.319,0.953,0.704
